From patent publication US10844032B2, “Substituted benzofuran, benzothiophene and indole Mcl-1 inhibitors” (Vanderbilt University, priority 2012, dated 2020)

molecular target: recombinant Mcl-1 (residues 172-327) (Homo sapiens (Human), UniProt Q07820); assay: Bak peptide fluorescence polarization anisotropy competition assay, Mcl-1; assay type: binding; conditions: not given
Sequence (Q07820 172-327): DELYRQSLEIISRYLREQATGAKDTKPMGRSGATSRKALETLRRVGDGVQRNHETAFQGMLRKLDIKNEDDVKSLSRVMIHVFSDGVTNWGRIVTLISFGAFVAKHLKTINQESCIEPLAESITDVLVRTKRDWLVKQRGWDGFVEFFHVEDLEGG

SMILES	Ki [nM]
Cc1cccc(S(=O)(=O)NC(=O)c2c(CCCOc3cc(C)c(Cl)c(C)c3)c3ccc(Cl)cc3n2Cc2cccnc2)c1 [Example 273, 6-chloro-3-(3-(4-chloro-3,5-dimethylphenoxy)propyl)-1-(pyridin-3-ylmethyl)-N-(m-tolylsulfonyl)-1H-indole-2-carboxamide]	101 to 299

same assay, conditions: Table 2, Ki range; FITC-Bak peptide 10 nM, Mcl-1 14 nM; read-out: Ki for inhibition of Mcl-1

Ki [nM]	SMILES
≤ 100	Cc1cccc(S(=O)(=O)NC(=O)c2[nH]c3c(-c4c(CO)nn(C)c4C)cccc3c2CCCOc2cc(C)c(Cl)c(C)c2)c1 [Example 204, 3-(3-(4-chloro-3,5-dimethylphenoxy)propyl)-7-(3-(hydroxymethyl)-1,5-dimethyl-1H-pyrazol-4-yl)-N-(m-tolylsulfonyl)-1H-indole-2-carboxamide]
≤ 100	Cc1cc(OCCCc2c(C(=O)NS(=O)(=O)CCNC(=O)C3CCCCC3)[nH]c3c(-c4c(CO)nn(C)c4C)cccc23)cc(C)c1Cl [Example 205, 3-(3-(4-chloro-3,5-dimethylphenoxy)propyl)-N-((2-(cyclohexanecarboxamido)ethyl)sulfonyl)-7-(3-(hydroxymethyl)-1,5-dimethyl-1H-pyrazol-4-yl)-1H-indole-2-carboxamide]
≤ 100	Cc1cc(OCCCc2c(C(=O)NS(=O)(=O)c3ccccc3)[nH]c3c(-c4c(COCCN(C)C)nn(C)c4C)cccc23)cc(C)c1Cl [Example 308, 3-(3-(4-chloro-3,5-dimethylphenoxy)propyl)-7-(3-((2-(dimethylamino)ethoxy)methyl)-1,5-dimethyl-1H-pyrazol-4-yl)-N-(phenylsulfonyl)-1H-indole-2-carboxamide]
≤ 100	Cc1cc(OCCCc2c(C(=O)NS(=O)(=O)c3ccccc3)[nH]c3c(-c4ccnn4C)cccc23)cc(C)c1Cl [Example 100, 3-(3-(4-chloro-3,5-dimethylphenoxy)propyl)-7-(1-methyl-1H-pyrazol-5-yl)-N-(phenylsulfonyl)-1H-indole-2-carboxamide]

same assay, conditions: read-out: Ki for inhibition of Mcl-1

Ki [nM]	SMILES
301 to 500	Cc1cc(OCCCc2c(C(=O)NS(=O)(=O)c3ccc(-c4ccccc4)cc3)[nH]c3ccccc23)cc(C)c1Cl [Example 139, N-([1,1′-biphenyl]-4-ylsulfonyl)-3-(3-(4-chloro-3,5-dimethylphenoxy)propyl)-1H-indole-2-carboxamide]
101 to 299	Cc1cc(OCCCc2c(C(=O)NS(=O)(=O)CCNC(=O)C(F)(F)F)[nH]c3cc(Cl)ccc23)cc(C)c1Cl [Example 254, 6-chloro-3-(3-(4-chloro-3,5-dimethylphenoxy)propyl)-N-((2-(2,2,2-trifluoroacetamido)ethyl)sulfonyl)-1H-indole-2-carboxamide]
301 to 500	Cc1cc(OCCCc2c(C(=O)NS(=O)(=O)c3ccc(OCc4ccccc4)nc3)[nH]c3ccccc23)cc(C)c1Cl [Example 144, N-((6-(benzyloxy)pyridin-3-yl)sulfonyl)-3-(3-(4-chloro-3,5-dimethylphenoxy)propyl)-1H-indole-2-carboxamide]
1000 to 9990	Cc1cc(OCCCc2c(C(=O)NS(=O)(=O)CCNC(=O)c3cncn3C)[nH]c3ccccc23)cc(C)c1Cl [Example 187, 3-(3-(4-chloro-3,5-dimethylphenoxy)propyl)-N-((2-(1-methyl-1H-imidazole-5-carboxamido)ethyl)sulfonyl)-1H-indole-2-carboxamide]
101 to 299	Cc1cc(OCCCc2c(C(=O)NS(=O)(=O)CCNC(=O)c3ccoc3C)[nH]c3cc(Cl)ccc23)cc(C)c1Cl [Example 227, 6-chloro-3-(3-(4-chloro-3,5-dimethylphenoxy)propyl)-N-((2-(2-methylfuran-3-carboxamido)ethyl)sulfonyl)-1H-indole-2-carboxamide]
101 to 299	Cc1cc(OCCCc2c(C(=O)NS(=O)(=O)CCNS(=O)(=O)c3ccc(Cl)c(Cl)c3)[nH]c3ccccc23)cc(C)c1Cl [Example 148, 3-(3-(4-chloro-3,5-dimethylphenoxy)propyl)-N-((2-(3,4-dichlorophenylsulfonamido)ethyl)sulfonyl)-1H-indole-2-carboxamide]
101 to 299	Cc1cc(OCCCc2c(C(=O)NS(=O)(=O)Cc3ccccc3)[nH]c3cc(Cl)ccc23)cc(C)c1Cl [Example 66, N-(benzylsulfonyl)-6-chloro-3-(3-(4-chloro-3,5-dimethylphenoxy)propyl)-1H-indole-2-carboxamide]
101 to 299	Cc1cc(OCCCc2c(C(=O)NS(=O)(=O)C3CC3)[nH]c3cc(Cl)ccc23)cc(C)c1Cl [Example 65, 6-chloro-3-(3-(4-chloro-3,5-dimethylphenoxy)propyl)-N-(cyclopropylsulfonyl)-1H-indole-2-carboxamide]
101 to 299	Cc1cc(OCCCc2c(C(=O)NS(C)(=O)=O)[nH]c3cc(Cl)ccc23)cc(C)c1Cl [Example 54, 6-chloro-3-(3-(4-chloro-3,5-dimethylphenoxy)propyl)-N-(methylsulfonyl)-1H-indole-2-carboxamide]
301 to 500	Cc1cc(OCCCc2c(C(=O)NS(=O)(=O)c3cccnc3)[nH]c3ccccc23)cc(C)c1Cl [Example 133, 3-(3-(4-chloro-3,5-dimethylphenoxy)propyl)-N-(pyridin-3-ylsulfonyl)-1H-indole-2-carboxamide]
301 to 500	Cc1ccccc1Cn1cccc1C(=O)NCCS(=O)(=O)NC(=O)c1[nH]c2cc(Cl)ccc2c1CCCOc1cc(C)c(Cl)c(C)c1 [Example 244, 6-chloro-3-(3-(4-chloro-3,5-dimethylphenoxy)propyl)-N-((2-(1-(2-methylbenzyl)-1H-pyrrole-2-carboxamido)ethyl)sulfonyl)-1H-indole-2-carboxamide]
301 to 500	COc1ccc(S(=O)(=O)NCCS(=O)(=O)NC(=O)c2[nH]c3ccccc3c2CCCOc2cc(C)c(Cl)c(C)c2)cc1 [Example 147, 3-(3-(4-chloro-3,5-dimethylphenoxy)propyl)-N-((2-(4-methoxyphenylsulfonamido)ethyl)sulfonyl)-1H-indole-2-carboxamide]
101 to 299	Cc1cc(OCCCc2c(C(=O)NS(=O)(=O)CCNC(=O)c3cccn3Cc3ccc(F)cc3)[nH]c3cc(Cl)ccc23)cc(C)c1Cl [Example 242, 6-chloro-3-(3-(4-chloro-3,5-dimethylphenoxy)propyl)-N-((2-(1-(4-fluorobenzyl)-1H-pyrrole-2-carboxamido)ethyl)sulfonyl)-1H-indole-2-carboxamide]
501 to 999	Cc1cc(OCCCc2c(C(=O)NS(=O)(=O)CCNC(=O)c3ccno3)[nH]c3ccccc23)cc(C)c1Cl [Example 154, N-(2-(N-(3-(3-(4-chloro-3,5-dimethylphenoxy)propyl)-1H-indole-2-carbonyl)sulfamoyl)ethyl)isoxazole-5-carboxamide]
501 to 999	Cc1cc(OCCCc2c(C(=O)NS(=O)(=O)CCCN3C(=O)c4ccccc4C3=O)[nH]c3cc(Cl)ccc23)cc(C)c1Cl [Example 256, 6-chloro-3-(3-(4-chloro-3,5-dimethylphenoxy)propyl)-N-((3-(1,3-dioxoisoindolin-2-yl)propyl)sulfonyl)-1H-indole-2-carboxamide]
1000 to 9990	Cc1cc(OCCCc2c(C(=O)NS(=O)(=O)CCNC(=O)c3ccn[nH]3)[nH]c3ccccc23)cc(C)c1Cl [Example 181, N-((2-(1H-pyrazole-5-carboxamido)ethyl)sulfonyl)-3-(3-(4-chloro-3,5-dimethylphenoxy)propyl)-1H-indole-2-carboxamide]
101 to 299	Cc1cc(OCCCc2c(C(=O)NS(=O)(=O)CCNC(=O)Cc3cn(C)c4ccccc34)[nH]c3cc(Cl)ccc23)cc(C)c1Cl [Example 235, 6-chloro-3-(3-(4-chloro-3,5-dimethylphenoxy)propyl)-N-((2-(2-(1-methyl-1H-indol-3-yl)acetamido)ethyl)sulfonyl)-1H-indole-2-carboxamide]

The remaining lines, values behind:

SMILES	Ki [nM]
Cc1ccc(OCCCc2c(C(=O)NS(C)(=O)=O)[nH]c3ccccc23)cc1 [Example 33, N-(methylsulfonyl)-3-(3-(p-tolyloxy)propyl)-1H-indole-2-carboxamide]	10000 to 50000
Cc1cccc(OCCCc2c(C(=O)NS(C)(=O)=O)[nH]c3ccccc23)c1 [Example 31, N-(methylsulfonyl)-3-(3-(m-tolyloxy)propyl)-1H-indole-2-carboxamide]	10000 to 50000
Cc1cc(OCCCc2c(C(=O)NS(=O)(=O)c3ccc(Oc4ccccc4)cc3)[nH]c3cc(Cl)ccc23)cc(C)c1Cl [Example 222, 6-chloro-3-(3-(4-chloro-3,5-dimethylphenoxy)propyl)-N-((4-phenoxyphenyl)sulfonyl)-1H-indole-2-carboxamide]	101 to 299
Cc1cc(OCCCc2c(C(=O)NS(=O)(=O)c3ccc(OCc4ccccc4)cc3)n(C)c3cc(Cl)ccc23)cc(C)c1Cl [Example 270, N-((4-(benzyloxy)phenyl)sulfonyl)-6-chloro-3-(3-(4-chloro-3,5-dimethylphenoxy)propyl)-1-methyl-1H-indole-2-carboxamide]	301 to 500
Cc1cc(OCCCc2c(C(=O)NS(=O)(=O)C3CCN(C(=O)C4CCCCC4)CC3)[nH]c3cc(Cl)ccc23)cc(C)c1Cl [Example 212, 6-chloro-3-(3-(4-chloro-3,5-dimethylphenoxy)propyl)-N-((1-(cyclohexanecarbonyl)piperidin-4-yl)sulfonyl)-1H-indole-2-carboxamide]	301 to 500
O=C(O)c1oc2ccccc2c1CCc1cccc2ccccc12 [Example 23, 3-(2-(naphthalen-1-yl)ethyl)benzofuran-2-carboxylic acid]	10000 to 50000
CS(=O)(=O)NC(=O)c1[nH]c2ccccc2c1CCCOc1cccc2ccccc12 [Example 19, N-(methylsulfonyl)-3-(3-(naphthalen-1-yloxy)propyl)-1H-indole-2-carboxamide]	1000 to 9990
Cc1cc(OCCCc2c(C(=O)NS(=O)(=O)CCN(C/C=C/c3ccccc3)C/C=C/c3ccccc3)[nH]c3ccccc23)cc(C)c1Cl [Example 203, 3-(3-(4-chloro-3,5-dimethylphenoxy)propyl)-N-((2-(dicinnamylamino)ethyl)sulfonyl)-1H-indole-2-carboxamide]	301 to 500
Cc1cc(OCCCc2c(C(=O)NS(=O)(=O)c3ccc(C(=O)N4CCOCC4)o3)[nH]c3cc(Cl)ccc23)cc(C)c1Cl [Example 262, 6-chloro-3-(3-(4-chloro-3,5-dimethylphenoxy)propyl)-N-((5-(morpholine-4-carbonyl)furan-2-yl)sulfonyl)-1H-indole-2-carboxamide]	101 to 299
